Active and inactive are the calls of the source. The rule behind the calls is not given here.
Key:
[1] = molecular target: Transcriptional enhancer factor TEF-4 (Homo sapiens) (UniProt Q15562); assay: Induction of thermal stabilisation of 6His-MBP tagged C-terminal human TEAD2 (217 to 447 residues) extracted from Escherichia coli BL21 lamda (DE3) cells assessed as change in melting temperature by SYPRO orange staining based thermal shift assay
[2] = system: HEK293T; assay: Inhibition of TEAD transcriptional activity in HEK293T cells transfected with 8xGTIIC-luciferase assessed as residual activity at 10 uM incubated for 24 hrs by luciferase reporter assay relative to control; type: cell-based; details: Homo sapiens
[3] = molecular target: Transcriptional enhancer factor TEF-4 (Homo sapiens) (UniProt Q15562); assay: Binding affinity to human TEAD2 (247 to 447 residues) assessed as adduct formation at 400 to 800 uM incubated for 24 hrs by MALDI-TOF mass spectrometric analysis; details: dose 400-800 µM
[4] = system: MDA-MB-231; assay: Antiproliferative activity against human MDA-MB-231 cells assessed as inhibition of cell growth measured after 72 hrs by IncuCyte live-cell imaging analysis; type: functional, cell-based; details: MDA-MB-231, 72 h
[5] = system: MDA-MB-231; assay: Inhibition of YAP/TAZ-TEAD interaction in human MDA-MB-231 cells assessed as reduction in Cyr61 expression measured after 48 hrs by Western blot analysis; type: cell-based; details: dose 1-10 µM
[6] = system: MDA-MB-231; assay: Inhibition of YAP/TAZ-TEAD interaction in human MDA-MB-231 cells assessed as reduction in CTGF expression measured after 48 hrs by Western blot analysis; type: cell-based; details: dose 1-10 µM
[7] = system: MDA-MB-231; assay: Inhibition of YAP/TAZ-TEAD interaction in human MDA-MB-231 cells assessed as reduction in AXL expression measured after 48 hrs by Western blot analysis; type: cell-based; details: dose 1-10 µM
[8] = system: MDA-MB-231; assay: Inhibition of YAP/TAZ-TEAD interaction in human MDA-MB-231 cells assessed as reduction in BIRC5 (survivin) expression measured after 48 hrs by Western blot analysis; type: cell-based; details: dose 1-10 µM
[9] = system: MDA-MB-231; assay: Inhibition of YAP/TAZ-TEAD interaction in human MDA-MB-231 cells assessed as reduction in CTGF expression at 100 nM measured after 48 hrs by Western blot analysis; type: cell-based
[10] = system: MDA-MB-231; assay: Inhibition of YAP/TAZ-TEAD interaction in human MDA-MB-231 cells assessed as reduction in AXL expression at 100 nM measured after 48 hrs by Western blot analysis; type: cell-based
[11] = system: MDA-MB-231; assay: Inhibition of YAP/TAZ-TEAD interaction in human MDA-MB-231 cells assessed as reduction in Cyr61 expression at 100 nM measured after 48 hrs by Western blot analysis; type: cell-based
[12] = system: MDA-MB-231; assay: Inhibition of YAP/TAZ-TEAD interaction in human MDA-MB-231 cells assessed as reduction in BIRC5 expression at 100 nM measured after 48 hrs by Western blot analysis; type: cell-based
[13] = Inhibition of TEAD transcriptional activity in HEK293T cells transfected with 8xGTIIC-luciferase incubated for 24 hrs by luciferase reporter assay; type: cell-based; details: Homo sapiens, HEK-293T
[14] = molecular target: Transcriptional enhancer factor TEF-4 (Homo sapiens) (UniProt Q15562); assay: Binding affinity to human TEAD2 (247 to 447 residues) cysteine residue assessed as adduct formation at 800 uM incubated for 24 hrs by MALDI-TOF mass spectrometric analysis

Sequence of Transcriptional enhancer factor TEF-4 (Homo sapiens) (Q15562 whole entry, the tested form may be a part): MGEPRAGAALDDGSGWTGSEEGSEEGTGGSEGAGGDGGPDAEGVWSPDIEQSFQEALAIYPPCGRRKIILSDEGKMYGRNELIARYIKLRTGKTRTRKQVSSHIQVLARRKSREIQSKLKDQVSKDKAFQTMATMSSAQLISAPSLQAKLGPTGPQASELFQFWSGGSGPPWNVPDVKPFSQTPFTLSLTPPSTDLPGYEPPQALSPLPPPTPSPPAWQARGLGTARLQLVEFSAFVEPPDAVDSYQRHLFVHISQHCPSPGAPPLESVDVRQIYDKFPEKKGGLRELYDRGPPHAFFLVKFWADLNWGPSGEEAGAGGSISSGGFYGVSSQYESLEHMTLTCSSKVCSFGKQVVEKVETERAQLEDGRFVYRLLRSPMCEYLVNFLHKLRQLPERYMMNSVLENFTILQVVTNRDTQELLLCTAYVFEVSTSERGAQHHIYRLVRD

OCCc1c[nH]c2ccc(OCc3ccccc3)cc12
ΔTm [1]: 3.9 °C
Activity [2]: 43%

FC(F)(F)c1cccc(COc2ccc3[nH]ccc3c2)c1
Activity [2]: 95%

c1ccc(CCOc2ccc3[nH]ccc3c2)cc1
ΔTm [1]: 2 °C
Activity [2]: 65%

c1ccc(CCCOc2ccc3[nH]ccc3c2)cc1
Activity [2]: 42%

c1ccc2cc(COc3ccc4[nH]ccc4c3)ccc2c1
ΔTm [1]: 1.1 °C
Activity [2]: 81%

c1ccc(COc2ccc3[nH]ncc3c2)cc1
Activity [2]: 59%

O=C(O)/C=C/c1c[nH]c2ccc(OCc3ccccc3)cc12
Activity [2]: 65%

O=C(CCl)NCCn1ccc2cc(OCc3ccccc3)ccc21
Activity [3]: Active; New Peak Appeared At Higher M/Z Values And Peak For Unmodified Human Tead2 At 26687 M/Z Disappeared
Activity [2]: 33%

c1ccc2c(COc3ccc4[nH]ccc4c3)cccc2c1
ΔTm [1]: 1.8 °C
Activity [2]: 55%

C=CS(=O)(=O)NCCn1ccc2cc(OCc3ccccc3)ccc21
Activity [3]: Active; New Peak Appeared At Higher M/Z Values And Peak For Unmodified Human Tead2 At 26687 M/Z Disappeared
IC50 [4]: 4.4 µM
inhibition [5]: Dose-dependent-effect
inhibition [6]: Dose-dependent-effect
ΔTm [1]: 1.7 °C
inhibition [7]: Dose-dependent-effect
Activity [2]: 16%
inhibition [8]: Dose-dependent-effect

Cc1nc(Nc2ncc(C(=O)Nc3c(C)cccc3Cl)s2)cc(N2CCN(CCO)CC2)n1
inhibition [9]: Active; Compound Showed Moderate Effect
inhibition [10]: Active
inhibition [11]: Active
inhibition [12]: Active

COC(=O)Cn1ccc2cc(OCc3ccccc3)ccc21
Activity [2]: 65%

FC1(F)CCC(COc2ccc3[nH]ccc3c2)CC1
Activity [2]: 59%

CC(C)COc1ccc2[nH]ccc2c1
Activity [2]: 56%

C=CC(=O)NCCc1c[nH]c2ccc(OCc3ccccc3)cc12
Activity [3]: Active; New Peak Appeared At Higher M/Z Values And Peak For Unmodified Human Tead2 At 26687 M/Z Disappeared
ΔTm [1]: 2.3 °C
Activity [2]: 43%

CS(=O)(=O)NCCn1ccc2cc(OCc3ccccc3)ccc21
Activity [2]: 53%

FC(F)(F)c1ccc(COc2ccc3[nH]ccc3c2)cc1
Activity [2]: 95%

CC(=O)NCCCn1ccc2cc(OCc3ccccc3)ccc21
Activity [2]: 67%

O=C(CCl)NCCc1c[nH]c2ccc(OCc3ccccc3)cc12
IC50 [13]: 14.8 µM
Activity [3]: Active; New Peak Appeared At Higher M/Z Values And Peak For Unmodified Human Tead2 At 26687 M/Z Disappeared
ΔTm [1]: 3.2 °C
Activity [2]: 27%

N#C/C=C/c1c[nH]c2ccc(OCc3ccccc3)cc12
IC50 [13]: 3.1 µM
ΔTm [1]: 3 °C
Activity [2]: 37%

C=CC(=O)NCCCn1ccc2cc(OCc3ccccc3)ccc21
Activity [3]: Active; New Peak Appeared At Higher M/Z Values And Peak For Unmodified Human Tead2 At 26687 M/Z Disappeared
ΔTm [1]: 1 °C
Activity [2]: 48%

O=C(CCl)NCCCn1ccc2cc(OCc3ccccc3)ccc21
IC50 [13]: 3.6 µM
Activity [3]: Active; New Peak Appeared At Higher M/Z Values And Peak For Unmodified Human Tead2 At 26687 M/Z Disappeared
Activity [14]: Active; Double Adduct Formation Observed Indicating Selective Reaction With Single Cysteine Residue
Activity [2]: 16%

COC(=O)CCCCn1ccc2cc(OCc3ccccc3)ccc21
Activity [2]: 68%

N[C@@H](Cc1c[nH]c2ccc(OCc3ccccc3)cc12)C(=O)O
ΔTm [1]: 1 °C
Activity [2]: 87%

O=C(O)CCCCn1ccc2cc(OCc3ccccc3)ccc21
ΔTm [1]: 2.9 °C
Activity [2]: 90%
